In patent US20230085307A1, “PYRIDAZINONE COMPOUND AND HERBICIDE” (NISSAN CHEMICAL CORPORATION, priority 2019, published 2023):

Assays:
[1] = test system: blackgrass; assay: Test Example 4: herbicidal effect by soil treatment (Table 19, symbol J); assay type: in vivo, blackgrass (Alopecurus myosuroides); conditions: amount of applied herbicide 320 g/ha
How it was run: (§1)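 Soil-surface application: an emulsion agent diluted with water to the predetermined dose is sprayed uniformly over seeds lying under roughly 1.5 cm of sterilized diluvial soil. Boxes stay in a greenhouse at 25° C. to 30° C. Three weeks later, each species is graded on previously defined criteria.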

[2] = test system: redroot pigweed; assay: Test Example 4: herbicidal effect by soil treatment (Table 19, symbol N); assay type: in vivo, redroot pigweed (Amaranthus retroflexus); conditions: amount of applied herbicide 320 g/ha
How it was run: as §1

[3] = test system: windgrass; assay: Test Example 5: herbicidal effect by foliage application, plastic box (Table 20, symbol L); assay type: in vivo, windgrass (Apera spica-venti); conditions: foliage application, evaluated three weeks after application
How it was run: (§2)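 Sow seeds spot-wise in sterilized diluvial soil; cover with ~1.5 cm soil. Grow 14 days in greenhouse, 25° C. to 30° C. Spray foliage with emulsion diluted to predetermined amount. Rate effect after 3 weeks.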

[4] = test system: velvetleaf; assay: Test Example 4: herbicidal effect by soil treatment (Table 19, symbol M); assay type: in vivo, velvetleaf (Abutilon theophrasti); conditions: amount of applied herbicide 320 g/ha
How it was run: as §1

[5] = test system: barnyard grass; assay: Test Example 5: herbicidal effect by foliage application, plastic box (Table 20, symbol H); assay type: in vivo, barnyard grass (Echinochloa crus-galli); conditions: foliage application, evaluated three weeks after application
How it was run: as §2

[6] = test system: rice flat sedge; assay: Test Example 3: herbicidal effect by foliage application, Wagner pot (Table 18, symbol E); assay type: in vivo, rice flat sedge (Cyperus iria); conditions: amount of applied herbicide 320 g/ha
How it was run: (§3)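 Plants were sown in alluvial soil held under 0.1–0.5 cm standing water and grown 14 days in a greenhouse at 25–30 °C. An emulsifiable formulation, water-diluted to the set dose, was then sprayed onto the foliage, and effects were scored three weeks later using previously defined criteria.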

[7] = test system: blackgrass; assay: Test Example 5: herbicidal effect by foliage application, plastic box (Table 20, symbol J); assay type: in vivo, blackgrass (Alopecurus myosuroides); conditions: foliage application, evaluated three weeks after application
How it was run: as §2

[8] = test system: persian speedwell; assay: Test Example 5: herbicidal effect by foliage application, plastic box (Table 20, symbol R); assay type: in vivo, Persian speedwell (Veronica persica); conditions: foliage application, evaluated three weeks after application
How it was run: as §2

[9] = test system: lambsquarters; assay: Test Example 4: herbicidal effect by soil treatment (Table 19, symbol O); assay type: in vivo, lambsquarters (Chenopodium album); conditions: amount of applied herbicide 320 g/ha
How it was run: as §1

[10] = test system: chickweed; assay: Test Example 5: herbicidal effect by foliage application, plastic box (Table 20, symbol P); assay type: in vivo, common chickweed (Stellaria media); conditions: foliage application, evaluated three weeks after application
How it was run: as §2

[11] = test system: lambsquarters; assay: Test Example 5: herbicidal effect by foliage application, plastic box (Table 20, symbol O); assay type: in vivo, lambsquarters (Chenopodium album); conditions: foliage application, evaluated three weeks after application
How it was run: as §2

[12] = test system: Chinese sprangletop; assay: Test Example 3: herbicidal effect by foliage application, Wagner pot (Table 18, symbol D); assay type: in vivo, chinese sprangletop (Leptochloa chinensis); conditions: amount of applied herbicide 320 g/ha
How it was run: as §3

[13] = test system: green foxtail; assay: Test Example 5: herbicidal effect by foliage application, plastic box (Table 20, symbol G); assay type: in vivo, green foxtail (Setaria viridis); conditions: foliage application, evaluated three weeks after application
How it was run: as §2

[14] = test system: false cleavers; assay: Test Example 4: herbicidal effect by soil treatment (Table 19, symbol Q); assay type: in vivo, false cleavers (Galium spurium); conditions: amount of applied herbicide 320 g/ha
How it was run: as §1

[15] = test system: Italian ryegrass; assay: Test Example 5: herbicidal effect by foliage application, plastic box (Table 20, symbol K); assay type: in vivo, Italian ryegrass (Lolium multiflorum); conditions: foliage application, evaluated three weeks after application
How it was run: as §2

[16] = test system: persian speedwell; assay: Test Example 4: herbicidal effect by soil treatment (Table 19, symbol R); assay type: in vivo, Persian speedwell (Veronica persica); conditions: amount of applied herbicide 320 g/ha
How it was run: as §1

[17] = test system: chickweed; assay: Test Example 4: herbicidal effect by soil treatment (Table 19, symbol P); assay type: in vivo, common chickweed (Stellaria media); conditions: amount of applied herbicide 320 g/ha
How it was run: as §1

[18] = test system: windgrass; assay: Test Example 4: herbicidal effect by soil treatment (Table 19, symbol L); assay type: in vivo, windgrass (Apera spica-venti); conditions: amount of applied herbicide 320 g/ha
How it was run: as §1

[19] = test system: southern crabgrass; assay: Test Example 5: herbicidal effect by foliage application, plastic box (Table 20, symbol F); assay type: in vivo, southern crabgrass (Digitaria ciliaris); conditions: foliage application, evaluated three weeks after application
How it was run: as §2

[20] = test system: Italian ryegrass; assay: Test Example 4: herbicidal effect by soil treatment (Table 19, symbol K); assay type: in vivo, Italian ryegrass (Lolium multiflorum); conditions: amount of applied herbicide 320 g/ha
How it was run: as §1

[21] = test system: wild oat; assay: Test Example 5: herbicidal effect by foliage application, plastic box (Table 20, symbol I); assay type: in vivo, wild oat (Avena fatua); conditions: foliage application, evaluated three weeks after application
How it was run: as §2

[22] = test system: wild oat; assay: Test Example 4: herbicidal effect by soil treatment (Table 19, symbol I); assay type: in vivo, wild oat (Avena fatua); conditions: amount of applied herbicide 320 g/ha
How it was run: as §1

[23] = test system: velvetleaf; assay: Test Example 5: herbicidal effect by foliage application, plastic box (Table 20, symbol M); assay type: in vivo, velvetleaf (Abutilon theophrasti); conditions: foliage application, evaluated three weeks after application
How it was run: as §2

[24] = test system: southern crabgrass; assay: Test Example 4: herbicidal effect by soil treatment (Table 19, symbol F); assay type: in vivo, southern crabgrass (Digitaria ciliaris); conditions: amount of applied herbicide 320 g/ha
How it was run: as §1

[25] = test system: redroot pigweed; assay: Test Example 5: herbicidal effect by foliage application, plastic box (Table 20, symbol N); assay type: in vivo, redroot pigweed (Amaranthus retroflexus); conditions: foliage application, evaluated three weeks after application
How it was run: as §2

[26] = test system: barnyard grass; assay: Test Example 3: herbicidal effect by foliage application, Wagner pot (Table 18, symbol H); assay type: in vivo, barnyard grass (Echinochloa crus-galli); conditions: amount of applied herbicide 320 g/ha
How it was run: as §3

[27] = test system: green foxtail; assay: Test Example 4: herbicidal effect by soil treatment (Table 19, symbol G); assay type: in vivo, green foxtail (Setaria viridis); conditions: amount of applied herbicide 320 g/ha
How it was run: as §1

[28] = test system: barnyard grass; assay: Test Example 4: herbicidal effect by soil treatment (Table 19, symbol H); assay type: in vivo, barnyard grass (Echinochloa crus-galli); conditions: amount of applied herbicide 320 g/ha
How it was run: as §1

CCSc1cccc(-c2sc3ccc(F)cc3c2-c2c(O)c(C)nn(C)c2=O)c1 [2-242]
herbicidal effect on J: blackgrass [1]: 0 (Herbicidal rate of 5% or less (almost no effect))
herbicidal effect on N: redroot pigweed [2]: 2 (Herbicidal rate of 20% or more and less than 40%)
herbicidal effect on L: windgrass (criteria 0-5) ([3]; 320 g/ha): 4 (Herbicidal rate of 70% or more and less than 90%)
herbicidal effect on M: velvetleaf [4]: 0 (Herbicidal rate of 5% or less (almost no effect))
herbicidal effect on H: barnyard grass (criteria 0-5) ([5]; 320 g/ha): 1 (Herbicidal rate of 5% or more and less than 20%)
herbicidal effect on E: rice flat sedge [6]: 2 (Herbicidal rate of 20% or more and less than 40%)
herbicidal effect on J: blackgrass (criteria 0-5) ([7]; 320 g/ha): 0 (Herbicidal rate of 5% or less (almost no effect))
herbicidal effect on R: persian speedwell (criteria 0-5) ([8]; 320 g/ha): 5 (Herbicidal rate of 90% or more (almost completely withered))
herbicidal effect on O: lambsquarters [9]: 1 (Herbicidal rate of 5% or more and less than 20%)
herbicidal effect on P: chickweed (criteria 0-5) ([10]; 320 g/ha): 5 (Herbicidal rate of 90% or more (almost completely withered))
herbicidal effect on O: lambsquarters (criteria 0-5) ([11]; 320 g/ha): 3 (Herbicidal rate of 40% or more and less than 70%)
herbicidal effect on D: Chinese sprangletop [12]: 0 (Herbicidal rate of 5% or less (almost no effect))
herbicidal effect on G: green foxtail (criteria 0-5) ([13]; 320 g/ha): 3 (Herbicidal rate of 40% or more and less than 70%)
herbicidal effect on Q: false cleavers [14]: 0 (Herbicidal rate of 5% or less (almost no effect))
herbicidal effect on K: Italian ryegrass (criteria 0-5) ([15]; 320 g/ha): 1 (Herbicidal rate of 5% or more and less than 20%)
herbicidal effect on R: persian speedwell [16]: 4 (Herbicidal rate of 70% or more and less than 90%)
herbicidal effect on P: chickweed [17]: 1 (Herbicidal rate of 5% or more and less than 20%)
herbicidal effect on L: windgrass [18]: 0 (Herbicidal rate of 5% or less (almost no effect))
herbicidal effect on F: southern crabgrass (criteria 0-5) ([19]; 320 g/ha): 3 (Herbicidal rate of 40% or more and less than 70%)
herbicidal effect on K: Italian ryegrass [20]: 0 (Herbicidal rate of 5% or less (almost no effect))
herbicidal effect on I: wild oat (criteria 0-5) ([21]; 320 g/ha): 4 (Herbicidal rate of 70% or more and less than 90%)
herbicidal effect on I: wild oat [22]: 0 (Herbicidal rate of 5% or less (almost no effect))
herbicidal effect on M: velvetleaf (criteria 0-5) ([23]; 320 g/ha): 3 (Herbicidal rate of 40% or more and less than 70%)
herbicidal effect on F: southern crabgrass [24]: 0 (Herbicidal rate of 5% or less (almost no effect))
herbicidal effect on N: redroot pigweed (criteria 0-5) ([25]; 320 g/ha): 4 (Herbicidal rate of 70% or more and less than 90%)
herbicidal effect on H: barnyard grass [26]: 3 (Herbicidal rate of 40% or more and less than 70%)
herbicidal effect on G: green foxtail [27]: 0 (Herbicidal rate of 5% or less (almost no effect))
herbicidal effect on H: barnyard grass [28]: 0 (Herbicidal rate of 5% or less (almost no effect))

CCn1nc(C)c(O)c(-c2c(-c3ccccc3OC)sc3ccc(F)cc23)c1=O [2-404]
herbicidal effect, J: blackgrass [1]: 0 (Herbicidal rate of 5% or less (almost no effect))
herbicidal effect, N: redroot pigweed [2]: 3 (Herbicidal rate of 40% or more and less than 70%)
L: windgrass, herbicidal effect (criteria 0-5) ([3]; AAH 320 g/ha): 0 (Herbicidal rate of 5% or less (almost no effect))
herbicidal effect, M: velvetleaf [4]: 0 (Herbicidal rate of 5% or less (almost no effect))
H: barnyard grass, herbicidal effect (criteria 0-5) ([5]; AAH 320 g/ha): 3 (Herbicidal rate of 40% or more and less than 70%)
herbicidal effect on E: rice flat sedge [6]: 3 (Herbicidal rate of 40% or more and less than 70%)
J: blackgrass, herbicidal effect (criteria 0-5) ([7]; AAH 320 g/ha): 0 (Herbicidal rate of 5% or less (almost no effect))
R: persian speedwell, herbicidal effect (criteria 0-5) ([8]; AAH 320 g/ha): 5 (Herbicidal rate of 90% or more (almost completely withered))
herbicidal effect, O: lambsquarters [9]: 3 (Herbicidal rate of 40% or more and less than 70%)
P: chickweed, herbicidal effect (criteria 0-5) ([10]; AAH 320 g/ha): 5 (Herbicidal rate of 90% or more (almost completely withered))
O: lambsquarters, herbicidal effect (criteria 0-5) ([11]; AAH 320 g/ha): 3 (Herbicidal rate of 40% or more and less than 70%)
herbicidal effect on D: Chinese sprangletop [12]: 0 (Herbicidal rate of 5% or less (almost no effect))
G: green foxtail, herbicidal effect (criteria 0-5) ([13]; AAH 320 g/ha): 1 (Herbicidal rate of 5% or more and less than 20%)
herbicidal effect, Q: false cleavers [14]: 0 (Herbicidal rate of 5% or less (almost no effect))
K: Italian ryegrass, herbicidal effect (criteria 0-5) ([15]; AAH 320 g/ha): 0 (Herbicidal rate of 5% or less (almost no effect))
herbicidal effect, R: persian speedwell [16]: 0 (Herbicidal rate of 5% or less (almost no effect))
herbicidal effect, P: chickweed [17]: 0 (Herbicidal rate of 5% or less (almost no effect))
herbicidal effect, L: windgrass [18]: 0 (Herbicidal rate of 5% or less (almost no effect))
F: southern crabgrass, herbicidal effect (criteria 0-5) ([19]; AAH 320 g/ha): 2 (Herbicidal rate of 20% or more and less than 40%)
herbicidal effect, K: Italian ryegrass [20]: 0 (Herbicidal rate of 5% or less (almost no effect))
I: wild oat, herbicidal effect (criteria 0-5) ([21]; AAH 320 g/ha): 0 (Herbicidal rate of 5% or less (almost no effect))
herbicidal effect, I: wild oat [22]: 0 (Herbicidal rate of 5% or less (almost no effect))
M: velvetleaf, herbicidal effect (criteria 0-5) ([23]; AAH 320 g/ha): 3 (Herbicidal rate of 40% or more and less than 70%)
herbicidal effect, F: southern crabgrass [24]: 0 (Herbicidal rate of 5% or less (almost no effect))
N: redroot pigweed, herbicidal effect (criteria 0-5) ([25]; AAH 320 g/ha): 5 (Herbicidal rate of 90% or more (almost completely withered))
herbicidal effect on H: barnyard grass [26]: 3 (Herbicidal rate of 40% or more and less than 70%)
herbicidal effect, G: green foxtail [27]: 0 (Herbicidal rate of 5% or less (almost no effect))
herbicidal effect, H: barnyard grass [28]: 0 (Herbicidal rate of 5% or less (almost no effect))
